Assay results published in US20170071976A1, “PHARMACEUTICAL SOLUTION HAVING ANTI-TUMOR EFFECT-ENHANCING AND TOXICITY-REDUCING EFFECT, AND PHARMACEUTICAL COMPOSITION COMPRISING SAME” (priority 2014, published 2017).

Assays:
Assay in all cases: MTT assay: in vitro inhibition of growth by deuterium oxide
Format in all cases: cell-based, human
[1] = system: A549 lung cancer cell line
Procedure: (§1) Studies of in vitro inhibition of growth of human tumor cells by deuterium oxide, by the MTT (3-(4,5-dimethylthiazol-2-yl)-2,5-diphenyltetrazolium bromide) assay
(§2) 1. A bottle of cells that had been cultured for 3 to 4 days and were in the exponential phase was taken, a suitable amount of 0.25% Trypsin-EDTA solution was added thereto to detach the cells from the wall, and the cells were suspended in 10 ml RPMI 1640 medium containing 10% FBS. 2. The cells were counted on a hemocytometer, and generally viable cells should be not less than 97%. 3. The cell suspension was diluted with a complete medium to prepare a suspension containing 1×10^4 cells/ml. 4. To each well of a 12-well culture plate, 300 μl cell suspension was added. The addition of cells should be finished within 4 hours. The plate was placed in an incubator at 37° C. and 5% CO2 for 24 hours. 5. Powdery RPMI Medium 1640 (Gibco, USA, Cat#: 31800-022) was dissolved in deuterium oxide (provided by Cambridge Isotope Laboratories, Inc. (US)) to prepare a cell culture medium (unless particularly specified, all culture media used in the Examples hereinafter were prepared from powdery RPMI Medium 1640 and deuterium oxide) at a concentration shown in Table 1, which was added into the cell culture plate. 6. The cell culture plate was incubated for 3 days in an incubator at 37° C., 5% CO2 and 100% humidity. 7. A solution of 1 mg/ml MTT was prepared in a serum-free RPMI1640 medium, added to the plate at 200 μl/well, and incubated at 37° C. for 4 hours, to allow MTT to be reduced to formazan. 8. The supernatant was removed by pipetting, 200 μl DMSO was added to dissolve formazan, and the solution was well mixed on a platform shaker. 9. Absorbance of each well was measured on an ELISA reader with a detection wavelength of 570 nm and a reference wavelength of 450 nm. 10. The assay was repeated one more time.
(§3) Calculation of results: Inhibition of growth of tumor cells by deuterium oxide was calculated using tumor cells treated with sodium chloride physiological solution as a control group. Inhibition of cell growth was plotted against amounts of deuterium oxide to obtain a dose response curve, from which the half maximal inhibitory concentration (IC50) of deuterium oxide was derived.
(§4) Inhibition of tumor cell growth (%)=(1−OD test/OD control)×100%

[2] = system: ASPC-1 pancreatic cancer cell line
Procedure: as §1, §2, §3, §4

[3] = system: HCT-116 colon cancer cell line
Procedure: as §1, §2, §3, §4

[4] = system: HeLa cervical cancer cell line
Procedure: as §1, §2, §3, §4

[5] = system: NCI-1975 lung cancer cell line
Procedure: as §1, §2, §3, §4

[6] = system: NCI-H460 lung cancer cell line
Procedure: as §1, §2, §3, §4

[7] = system: PANC-1 pancreatic cancer cell line
Procedure: as §1, §2, §3, §4

[8] = system: U2-OS osteosarcoma cell line
Procedure: as §1, §2, §3, §4

[2H]O[2H] [Deuterium oxide]
Inhibition of growth (%) ([1]; deuterium oxide 1.2% (v/v)): 7.71% | Inhibition of growth (%) ([1]; deuterium oxide 2.5% (v/v)): 17.64% | Inhibition of growth (%) ([1]; deuterium oxide 5% (v/v)): 18.05% | Inhibition of growth (%) ([1]; deuterium oxide 10% (v/v)): 18.88% | Inhibition of growth (%) ([1]; deuterium oxide 20% (v/v)): 16.19% | Inhibition of growth (%) ([1]; deuterium oxide 30% (v/v)): 27.71% | Inhibition of growth (%) ([1]; deuterium oxide 40% (v/v)): 39.37% | Inhibition of growth (%) ([1]; deuterium oxide 50% (v/v)): 42.67% | Inhibition of growth (%) ([1]; deuterium oxide 60% (v/v)): 55.42% | Inhibition of growth (%) ([1]; deuterium oxide 70% (v/v)): 70.88% | Inhibition of growth (%) ([1]; deuterium oxide 80% (v/v)): 92.34% | IC10 ([1]; expressed in v/v %): 1.52% | IC50 ([1]; expressed in v/v %): 55.32% | Inhibition of growth (%) ([2]; deuterium oxide 1.2% (v/v)): 0.64% | Inhibition of growth (%) ([2]; deuterium oxide 2.5% (v/v)): 6.35% | Inhibition of growth (%) ([2]; deuterium oxide 5% (v/v)): −0.20% | Inhibition of growth (%) ([2]; deuterium oxide 10% (v/v)): −4.88% | Inhibition of growth (%) ([2]; deuterium oxide 20% (v/v)): −7.26% | Inhibition of growth (%) ([2]; deuterium oxide 30% (v/v)): 9.70% | Inhibition of growth (%) ([2]; deuterium oxide 40% (v/v)): 23.99% | Inhibition of growth (%) ([2]; deuterium oxide 50% (v/v)): 44.14% | Inhibition of growth (%) ([2]; deuterium oxide 60% (v/v)): 52.22% | Inhibition of growth (%) ([2]; deuterium oxide 70% (v/v)): 70.14% | Inhibition of growth (%) ([2]; deuterium oxide 80% (v/v)): 85.83% | IC10 ([2]; expressed in v/v %): 11.80% | IC50 ([2]; expressed in v/v %): 57.00% | Inhibition of growth (%) ([3]; deuterium oxide 1.2% (v/v)): 11.81% | Inhibition of growth (%) ([3]; deuterium oxide 2.5% (v/v)): 31.55% | Inhibition of growth (%) ([3]; deuterium oxide 5% (v/v)): 21.64% | Inhibition of growth (%) ([3]; deuterium oxide 10% (v/v)): 18.58% | Inhibition of growth (%) ([3]; deuterium oxide 20% (v/v)): 23.32% | Inhibition of growth (%) ([3]; deuterium oxide 30% (v/v)): 30.21% | Inhibition of growth (%) ([3]; deuterium oxide 40% (v/v)): 37.43% | Inhibition of growth (%) ([3]; deuterium oxide 50% (v/v)): 48.43% | Inhibition of growth (%) ([3]; deuterium oxide 60% (v/v)): 66.31% | Inhibition of growth (%) ([3]; deuterium oxide 70% (v/v)): 70.42% | Inhibition of growth (%) ([3]; deuterium oxide 80% (v/v)): 94.62% | IC10 ([3]; expressed in v/v %): 0.25% | IC50 ([3]; expressed in v/v %): 51.13% | Inhibition of growth (%) ([4]; deuterium oxide 1.2% (v/v)): 12.11% | Inhibition of growth (%) ([4]; deuterium oxide 2.5% (v/v)): 14.44% | Inhibition of growth (%) ([4]; deuterium oxide 5% (v/v)): 16.25% | Inhibition of growth (%) ([4]; deuterium oxide 10% (v/v)): 28.87% | Inhibition of growth (%) ([4]; deuterium oxide 20% (v/v)): 36.12% | Inhibition of growth (%) ([4]; deuterium oxide 30% (v/v)): 45.41% | Inhibition of growth (%) ([4]; deuterium oxide 40% (v/v)): 58.26% | Inhibition of growth (%) ([4]; deuterium oxide 50% (v/v)): 65.63% | Inhibition of growth (%) ([4]; deuterium oxide 60% (v/v)): 73.32% | Inhibition of growth (%) ([4]; deuterium oxide 70% (v/v)): 85.82% | Inhibition of growth (%) ([4]; deuterium oxide 80% (v/v)): 90.11% | IC10 ([4]; expressed in v/v %): 1.8% | IC50 ([4]; expressed in v/v %): 68.33% | Inhibition of growth (%) ([5]; deuterium oxide 1.2% (v/v)): 0.84% | Inhibition of growth (%) ([5]; deuterium oxide 2.5% (v/v)): −8.29% | Inhibition of growth (%) ([5]; deuterium oxide 5% (v/v)): −7.44% | Inhibition of growth (%) ([5]; deuterium oxide 10% (v/v)): −4.95% | Inhibition of growth (%) ([5]; deuterium oxide 20% (v/v)): 5.60% | Inhibition of growth (%) ([5]; deuterium oxide 30% (v/v)): 6.66% | Inhibition of growth (%) ([5]; deuterium oxide 40% (v/v)): 24.03% | Inhibition of growth (%) ([5]; deuterium oxide 50% (v/v)): 39.10% | Inhibition of growth (%) ([5]; deuterium oxide 60% (v/v)): 51.93% | Inhibition of growth (%) ([5]; deuterium oxide 70% (v/v)): 79.65% | Inhibition of growth (%) ([5]; deuterium oxide 80% (v/v)): 87.23% | IC10 ([5]; expressed in v/v %): 27.00% | IC50 ([5]; expressed in v/v %): 62.61% | Inhibition of growth (%) ([6]; deuterium oxide 1.2% (v/v)): 1.15% | Inhibition of growth (%) ([6]; deuterium oxide 2.5% (v/v)): 9.40% | Inhibition of growth (%) ([6]; deuterium oxide 5% (v/v)): 11.27% | Inhibition of growth (%) ([6]; deuterium oxide 10% (v/v)): 9.47% | Inhibition of growth (%) ([6]; deuterium oxide 20% (v/v)): 11.60% | Inhibition of growth (%) ([6]; deuterium oxide 30% (v/v)): 30.58% | Inhibition of growth (%) ([6]; deuterium oxide 40% (v/v)): 42.05% | Inhibition of growth (%) ([6]; deuterium oxide 50% (v/v)): 53.09% | Inhibition of growth (%) ([6]; deuterium oxide 60% (v/v)): 69.50% | Inhibition of growth (%) ([6]; deuterium oxide 70% (v/v)): 82.33% | Inhibition of growth (%) ([6]; deuterium oxide 80% (v/v)): 98.06% | IC10 ([6]; expressed in v/v %): 5.60% | IC50 ([6]; expressed in v/v %): 48.75% | Inhibition of growth (%) ([7]; deuterium oxide 1.2% (v/v)): 7.37% | Inhibition of growth (%) ([7]; deuterium oxide 2.5% (v/v)): 13.88% | Inhibition of growth (%) ([7]; deuterium oxide 5% (v/v)): 14.41% | Inhibition of growth (%) ([7]; deuterium oxide 10% (v/v)): 8.43% | Inhibition of growth (%) ([7]; deuterium oxide 20% (v/v)): 9.06% | Inhibition of growth (%) ([7]; deuterium oxide 30% (v/v)): 17.81% | Inhibition of growth (%) ([7]; deuterium oxide 40% (v/v)): 26.73% | Inhibition of growth (%) ([7]; deuterium oxide 50% (v/v)): 31.62% | Inhibition of growth (%) ([7]; deuterium oxide 60% (v/v)): 50.31% | Inhibition of growth (%) ([7]; deuterium oxide 70% (v/v)): 57.29% | Inhibition of growth (%) ([7]; deuterium oxide 80% (v/v)): 79.05% | IC10 ([7]; expressed in v/v %): 3.03% | IC50 ([7]; expressed in v/v %): 65.38% | Inhibition of growth (%) ([8]; deuterium oxide 1.2% (v/v)): −2.81% | Inhibition of growth (%) ([8]; deuterium oxide 2.5% (v/v)): 4.20% | Inhibition of growth (%) ([8]; deuterium oxide 5% (v/v)): −1.64% | Inhibition of growth (%) ([8]; deuterium oxide 10% (v/v)): −8.55% | Inhibition of growth (%) ([8]; deuterium oxide 20% (v/v)): −3.12% | Inhibition of growth (%) ([8]; deuterium oxide 30% (v/v)): 11.99% | Inhibition of growth (%) ([8]; deuterium oxide 40% (v/v)): 10.23% | Inhibition of growth (%) ([8]; deuterium oxide 50% (v/v)): 18.21% | Inhibition of growth (%) ([8]; deuterium oxide 60% (v/v)): 23.43% | Inhibition of growth (%) ([8]; deuterium oxide 70% (v/v)): 29.64% | Inhibition of growth (%) ([8]; deuterium oxide 80% (v/v)): 45.84% | IC10 ([8]; expressed in v/v %): 24.99% | IC50 ([8]; expressed in v/v %): 86.25%
